Patent publication US20190117574A1, “SURFACE-MODIFIED MICROSPHERE COMPOSITION, APPLICATION OF THE SAME, AND METHOD OF PREPARING THE SAME” (INSTITUTE OF NUCLEAR ENERGY RESEARCH, ATOMIC ENERGY …, priority 2017, published 2019)

Tested on: mice with FCA-induced arthritis
Experiment: Treatment of mice with FCA-induced arthritis: ankle joint diameter
Format: in vivo, mice (C57BL/6)
Conditions: 10 mg/kg/ml, subdermal injection around right tibiotarsal joint on day 21 after FCA, FIG. 8
Protocol: Animal Model Created with Arthritis Induced by Freund's Complete Adjuvant (FCA) 24 male mice (C57BL/6, purchased from the National Laboratory Animal Center, Taipei, Taiwan) weighing 20-25 g (8 weeks old) are provided. The mice are each given a subdermal injection of 0.1 ml of FCA at the tibiotarsal joint of the right hind leg and 0.05 ml of FCA on the subplantar side of the right hind paw to induce the development of arthritis. Afterward, thermal images are taken of the mice with a thermal imaging camera on day 0, day 3, and day 14 after injected with FCA, respectively. The diameters of ankle joints of left and right hind legs of the mice are measured with a vernier caliper are surveyed and recorded for 2 or 3 days. The mice with FCA-induced arthritis are administered with a neutrophil elastase 680 FAST probe through trail veins on day 21 and observed with IVIS (non-invasion in vivo imaging system) to confirm whether neutrophil elastase is produced at the location where FCA is injected.
The animal model created with FCA-induced arthritis is described above. 24 mice which conform to the animal model created with FCA-induced arthritis are provided. […]
Upon completion of the subdermal injection of the reagents into the four groups of mice, the diameters of left and right ankle joints and body weight of the mice are measured with a vernier caliper and recorded for 2 or 3 days.

SMILES: O=C(O)Cc1ccccc1Nc1c(Cl)cccc1Cl [free diclofenac sodium, diclofenac sodium]
- reduction of swelling of ankles (ankle joint diameter) compared with saline: more effective than saline in reducing the swelling of the mice's ankles
